Data published in US7655225B2, “Methods of expanding stem and progenitor cells and expanded cell populations obtained thereby” (Gamida Cell, Ltd., priority 2002, dated 2010).

Experiments:
[1] = test system: mononuclear cells (MNC); test: Colony-forming cells (CFUs) from mixed cells (MNC) culture; type: cell-based, human; details: FIG. 18
Experimental: Self-renewal potential evaluations: The self-renewal potential of stem cells was determined in vitro by long-term colony formation. Cells were washed and seeded in a semi-solid methylcellulose medium supplemented with 2 IU/ml erythropoietin (Eprex, Cilage AG Int., Switzerland), stem cell factor and IL-3, both at 20 ng/ml (Perpo Tech), and G-CSF and GM-CSF, both at 10 ng/ml (Perpo Tech). The resulting colonies were scored after two weeks of incubation at 37° C. in a humidified atmosphere of 5% CO2 in air. Colonies were classified as blast, mixed, erythroid, myeloid, and megakaryocytic, according to their cellular composition.
Ex vivo expansion of progenitor cells: The non-purified mononuclear cells (MNC), obtained as described hereinabove, were seeded in Culture Bags (American Fluoroseal Corp.), with alpha minimal essential medium supplemented with 10% fetal bovine serum (FBS, Biological Industries), at a concentration of about 10^6 cells/ml. The purified CD34^+ cells were similarly seeded in the Culture Bags, at a concentration of […]. The media were supplemented with TEPA chelator and/or with the following human recombinant cytokines (all obtained from Perpo Tech, Inc., Rocky Hill, N.J.): Thrombopoietin (TPO), 50 ng/ml; interleukin 6 (IL-6), 50 ng/ml; FLT-3 ligand, 50 ng/ml and a stem cell factor (SCF), 50 ng/ml; occasionally SCF was replaced by IL-3, 20 ng/ml. […]

[2] = test system: mononuclear cells (MNC); test: Morphological analysis of cells from long-term MNC cultures; type: cell-based, human; details: untreated: fully differentiated
Experimental: Morphological assessment: In order to characterize the resulting culture populations, aliquots of cells were deposited on a glass slide (cytocentrifuge, Shandon, Runcorn, UK), fixed and stained in May-Grunwald and Giemsa stain. Cloning potential evaluation, morphological assessment and surface antigen analyses were carried out as described in the experimental procedures section of Example 1 above.

[3] = test system: platelets; test: In vivo recovery of platelets after gamma-irradiation; design: species or system mice (BALB/C X C57B1/6/F1); details: single treatment, 30 μM; irradiated mice
Experimental: In this experiment, ten mice (BALB/C X C57B1/6/F1) were gamma-irradiated (700 cGy) so as to mimic an irradiation therapy situation that destroys platelets. One day after irradiation five (out of ten) mice were administered with 30 μM of Cu-TEPA, while the other five mice were non-treated. The platelet levels in all mice were enumerated one week after irradiation. […] The results of this experiment illustrate that a copper chelate can effectively enhance the recovery of hematopoietic cells in subjects exposed to irradiation treatment.

[4] = test system: CD34+ cells; test: Morphological assessment of cultured CD34+ cells; type: cell-based, human; details: 8-weeks culture; control: mainly differentiated cells; FIGS. 3a-b
Description: Morphological assessment: In order to characterize the resulting culture populations, aliquots of cells were deposited on a glass slide (cytocentrifuge, Shandon, Runcorn, UK), fixed and stained in May-Grunwald and Giemsa stain.

Row | Compound | number of CD34+ CFUs ([1]; after 2 weeks) | number of CD34+ CFUs ([1]; after 10 weeks) | morphological analysis of cells [2] | recovery of platelets vs non-treated control [3] | morphological analysis of culture [4]
1 | NCCNCCNCCNCCN [TEPA chelator, tetraethylenepentamine] | non-detectable | 3.2×10^7 cells/ml | high proportion of non-differentiated cells | – | –
2 | NCCNCCNCCNCCN.[Cl-].[Cl-].[Cu+2] [TEPA-Cu chelate, tetraethylenepentamine-copper chelate] | – | – | – | significantly accelerated | mainly blast-like cells
